These results are taken from US12569464B2, “Protein-protein interaction inducing technology” (Arvinas Operations, Inc., priority 2016, dated 2026).

Bounds are passed on as bounds.

In one assay the target is T1, Androgen Receptor (Homo sapiens, UniProt P10275).
T1 construct: expressed in transfected cells; host or cells: HEK293
T1 sequence (P10275 1-920): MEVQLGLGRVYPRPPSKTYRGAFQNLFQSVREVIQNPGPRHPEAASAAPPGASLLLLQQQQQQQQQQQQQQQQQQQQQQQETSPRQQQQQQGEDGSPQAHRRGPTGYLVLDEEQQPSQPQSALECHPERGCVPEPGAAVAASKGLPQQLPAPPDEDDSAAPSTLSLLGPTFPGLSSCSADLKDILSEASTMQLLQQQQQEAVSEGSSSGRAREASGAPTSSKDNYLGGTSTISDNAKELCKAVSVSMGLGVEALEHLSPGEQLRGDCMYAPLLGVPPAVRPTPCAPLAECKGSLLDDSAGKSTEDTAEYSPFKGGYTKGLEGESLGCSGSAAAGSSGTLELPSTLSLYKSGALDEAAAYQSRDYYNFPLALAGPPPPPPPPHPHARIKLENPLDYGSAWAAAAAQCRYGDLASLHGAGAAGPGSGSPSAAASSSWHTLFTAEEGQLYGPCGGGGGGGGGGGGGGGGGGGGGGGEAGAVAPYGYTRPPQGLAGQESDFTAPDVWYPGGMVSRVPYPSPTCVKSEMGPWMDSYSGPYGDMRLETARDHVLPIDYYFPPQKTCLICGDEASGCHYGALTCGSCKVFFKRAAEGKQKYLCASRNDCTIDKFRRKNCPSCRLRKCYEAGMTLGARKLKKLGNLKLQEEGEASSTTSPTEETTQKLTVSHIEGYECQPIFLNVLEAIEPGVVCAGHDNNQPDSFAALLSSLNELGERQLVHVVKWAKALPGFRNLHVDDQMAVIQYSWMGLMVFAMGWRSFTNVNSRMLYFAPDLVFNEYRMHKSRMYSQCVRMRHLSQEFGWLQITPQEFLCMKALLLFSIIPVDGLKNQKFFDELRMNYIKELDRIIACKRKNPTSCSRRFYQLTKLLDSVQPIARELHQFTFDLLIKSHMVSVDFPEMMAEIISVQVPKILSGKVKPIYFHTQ
Nature of the assay: Cell-based ligand (R1881) displacement assay, binary binding to AR. The settings on record: read-out: binary binding potency IC50^AR in cells. As to the method:
It is composed of an AR-binding warhead which is connected to a VHL-binding warhead by a linear connector. […] MD simulation of a ternary system composed of AR ligand-binding domain, a ligand and the complex of VHL with elongin B (EB) and elongin C (EC) in the presence of explicit water was performed. The ligand in the simulation is a close analog of the ligand L above and only differs from the ligand L above by having a methyl substitution at the 4-position of the thiazole group.
(§1) The connector linking the AR-binding warhead and the VHL-binding warhead was systematically probed from 4 to 23 atoms. The AR degradation potency DC50 and the maximum percentage of degradation Dmax of AR in LNCaP cells were measured for each of these compounds. […] The binary binding potency with respect to AR was also measured for some of the compounds by the cell-based ligand (R1881) displacement assay. The ratio α between the AR-binding potency and the degradation potency are calculated when it is possible.
The experimental protocol is based on reference Gustafson et al. (Angew. Chem. Int. Ed., 54: 9659-9662). HEK293 cells were transiently transfected using Fugene 6 to overexpress wildtype Androgen Receptor. During binding assay, transfected cells were grown in DMEM supplemented with 10% charcoal-stripped FBS. Cells were treated for two hours with the indicated competitor compound in the presence of 0.1 nM ^3H-R1881. Cells were washed in PBS, lysed in 200 ul lysis buffer (2% SDS, 10% Glycerol, 10 mM Tris-HCl [pH 6.8]), and cleared with the addition of 300 ul of 10 mM Tris-HCl (pH 8.0). 300 ul of these lysates were added to 3 mL of Cytoscint (MP Biomedicals), and scintillation counting was performed on a Beckman LS 6000SC instrument. Counts (cpm) were normalized to total protein amount in each sample, as determined via the Pierce BCA Protein Assay Kit (Thermo Scientific) per the manufacturer's instructions.

In the next assay the target is T2, AR (Homo sapiens, UniProt P10275+P40337, T878A).
T2 construct: degradation Dmax of AR in LNCaP cells; endogenous in cells; host or cells: LNCaP
Nature of the assay: AR degradation in LNCaP cells (androgen receptor ELISA). It counts as cell-based. The settings on record: for maximum AR degradation Dmax / DC50 / Dmax: LNCaP cells; for DC50: read-out: AR degradation potency DC50; for Dmax: read-out: maximum AR degradation Dmax. As to the method: as §1
Androgen Receptor ELISA Assay
The protocols used with VCaP cells are described below. The androgen receptor ELISA assay was performed using PathScan AR ELISA (Cell Signaling Catalog #12850) according to the following assay steps: […]

T2 sequence (Q15370 whole entry): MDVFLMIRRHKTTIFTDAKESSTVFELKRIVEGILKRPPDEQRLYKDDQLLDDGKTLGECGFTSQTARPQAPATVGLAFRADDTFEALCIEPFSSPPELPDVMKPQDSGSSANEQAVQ
T2 sequence (P40337 whole entry): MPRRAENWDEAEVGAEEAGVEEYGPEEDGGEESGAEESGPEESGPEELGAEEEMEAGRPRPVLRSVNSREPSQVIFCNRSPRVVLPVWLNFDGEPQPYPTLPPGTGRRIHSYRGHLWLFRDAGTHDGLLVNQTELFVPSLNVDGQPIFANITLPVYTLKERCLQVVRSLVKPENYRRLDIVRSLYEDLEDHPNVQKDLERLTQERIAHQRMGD
T2 sequence (P10275 whole entry T878A): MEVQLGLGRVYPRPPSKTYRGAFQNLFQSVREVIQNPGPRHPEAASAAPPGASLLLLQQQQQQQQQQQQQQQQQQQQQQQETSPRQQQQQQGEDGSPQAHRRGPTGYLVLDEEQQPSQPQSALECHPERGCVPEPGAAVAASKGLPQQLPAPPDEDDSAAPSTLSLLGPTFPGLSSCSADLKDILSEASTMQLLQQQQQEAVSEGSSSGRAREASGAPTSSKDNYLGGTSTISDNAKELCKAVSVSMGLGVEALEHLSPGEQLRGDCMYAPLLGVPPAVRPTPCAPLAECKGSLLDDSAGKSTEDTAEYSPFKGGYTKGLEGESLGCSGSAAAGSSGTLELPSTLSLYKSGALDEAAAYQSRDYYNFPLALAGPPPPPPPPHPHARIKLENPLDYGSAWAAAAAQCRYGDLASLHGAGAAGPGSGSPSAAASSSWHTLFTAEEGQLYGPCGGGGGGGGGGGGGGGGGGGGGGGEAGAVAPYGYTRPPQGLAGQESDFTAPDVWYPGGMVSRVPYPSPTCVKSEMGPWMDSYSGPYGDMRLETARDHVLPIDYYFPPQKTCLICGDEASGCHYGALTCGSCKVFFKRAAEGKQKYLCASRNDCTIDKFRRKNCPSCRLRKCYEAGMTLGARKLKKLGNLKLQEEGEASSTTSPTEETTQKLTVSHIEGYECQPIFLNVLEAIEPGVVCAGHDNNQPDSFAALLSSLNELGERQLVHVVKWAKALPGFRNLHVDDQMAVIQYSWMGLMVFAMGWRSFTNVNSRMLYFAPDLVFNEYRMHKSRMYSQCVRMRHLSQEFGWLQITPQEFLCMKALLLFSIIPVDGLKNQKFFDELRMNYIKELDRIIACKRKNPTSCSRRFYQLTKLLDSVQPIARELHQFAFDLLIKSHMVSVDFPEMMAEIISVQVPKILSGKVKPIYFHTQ
T2 sequence (Q15369 whole entry, further chain): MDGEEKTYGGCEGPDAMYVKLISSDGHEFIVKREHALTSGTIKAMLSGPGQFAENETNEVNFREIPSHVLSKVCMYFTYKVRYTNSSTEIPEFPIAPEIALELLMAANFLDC

With `Cc1ncsc1-c1ccc(CNC(=O)[C@@H]2C[C@@H](O)CN2C(=O)[C@@H](NC(=O)COCCOCCOCCCCCOc2ccc(N3C(=S)N(c4ccc(C#N)c(C(F)(F)F)c4)C(=O)C3(C)C)cc2)C(C)(C)C)cc1` [Compound 11], on Androgen Receptor, the IC50 came out at 1.15 µM. In addition, on AR, the “ratio α between AR-binding potency IC50 and degradation potency DC50” value was 105; the “maximum AR degradation Dmax” value worked out at 60%; the DC50 is 0.011 µM.
As to `Cc1ncsc1-c1ccc(CNC(=O)[C@@H]2C[C@@H](O)CN2C(=O)[C@@H](NC(=O)COCCOCCCCOCCCCOCCOCCOc2ccc(N3C(=S)N(c4ccc(C#N)c(C(F)(F)F)c4)C(=O)C3(C)C)cc2)C(C)(C)C)cc1` [Compound 17], at Androgen Receptor, the IC50 turned out to be 1.42 µM. In addition, on AR, the DC50 was above 3 µM and the Dmax worked out at 43%.
Take `Cc1ncsc1-c1ccc(CNC(=O)[C@@H]2C[C@@H](O)CN2C(=O)[C@@H](NC(=O)COCCOCCOCCCOCCOCCOc2ccc(N3C(=S)N(c4ccc(C#N)c(C(F)(F)F)c4)C(=O)C3(C)C)cc2)C(C)(C)C)cc1` [Compound 14]: at Androgen Receptor, the half-maximal inhibitory concentration (IC50) was 4.95 µM. Moreover, on AR, the DC50 was determined as 0.22 µM and the Dmax stood at 52%.
Turning to `Cc1ncsc1-c1ccc(CNC(=O)[C@@H]2C[C@@H](O)CN2C(=O)[C@@H](NC(=O)COCCOCCCCCOCCCCCOCCOCCOc2ccc(N3C(=S)N(c4ccc(C#N)c(C(F)(F)F)c4)C(=O)C3(C)C)cc2)C(C)(C)C)cc1` [Compound 18], at Androgen Receptor, the IC50 amounted to 0.96 µM. In addition, on AR, the “ratio α between AR-binding potency IC50 and degradation potency DC50” value is given as below 1; the “maximum AR degradation Dmax” value is reported as 47%; the DC50 is above 3 µM.
For `Cc1ncsc1-c1ccc(CNC(=O)[C@@H]2C[C@@H](O)CN2C(=O)[C@@H](NC(=O)CCCOc2ccc(N3C(=S)N(c4ccc(C#N)c(C(F)(F)F)c4)C(=O)C3(C)C)cc2)C(C)(C)C)cc1` [Compound 1], the half-inhibitory concentration (IC50) on Androgen Receptor was determined as 0.97 µM. At AR, the DC50 was above 3 µM and the greatest degradation seen (Dmax) came to 35%.
Turning to `Cc1ncsc1-c1ccc(CNC(=O)[C@@H]2C[C@@H](O)CN2C(=O)[C@@H](NC(=O)COCCCOCCCCCOc2ccc(N3C(=S)N(c4ccc(C#N)c(C(F)(F)F)c4)C(=O)C3(C)C)cc2)C(C)(C)C)cc1` [Compound 9], at Androgen Receptor, the IC50 was 0.81 µM. Further, on AR, the “ratio α between AR-binding potency IC50 and degradation potency DC50” value worked out at 23.5; the “maximum AR degradation Dmax” value was 83%; the half-maximal degradation concentration (DC50) was 0.0344 µM.
For `Cc1ncsc1-c1ccc(CNC(=O)[C@@H]2C[C@@H](O)CN2C(=O)[C@@H](NC(=O)COCCOCCOCCCCOCCOCCOc2ccc(N3C(=S)N(c4ccc(C#N)c(C(F)(F)F)c4)C(=O)C3(C)C)cc2)C(C)(C)C)cc1` [Compound 15], the IC50 at Androgen Receptor came to 3.48 µM. At AR, the DC50 came to 0.029 µM and the Dmax is 58%.
Turning to `Cc1ncsc1-c1ccc(CNC(=O)[C@@H]2C[C@@H](O)CN2C(=O)[C@@H](NC(=O)COCCOCCOCCOCCOCCOCCOc2ccc(N3C(=S)N(c4ccc(C#N)c(C(F)(F)F)c4)C(=O)C3(C)C)cc2)C(C)(C)C)cc1` [Compound 16], on Androgen Receptor, the IC50 worked out at 1.75 µM. Also, on AR, the DC50 came to 3 µM and the greatest degradation seen (Dmax) is 90%.
For the compound `Cc1ncsc1-c1ccc(CNC(=O)[C@@H]2C[C@@H](O)CN2C(=O)[C@@H](NC(=O)COCCOCCCOc2ccc(N3C(=S)N(c4ccc(C#N)c(C(F)(F)F)c4)C(=O)C3(C)C)cc2)C(C)(C)C)cc1` [Compound 6], on AR, the “maximum AR degradation Dmax” value turned out to be 54% and the DC50 came to 0.072 µM.
Turning to `Cc1ncsc1-c1ccc(CNC(=O)[C@@H]2C[C@@H](O)CN2C(=O)[C@@H](NC(=O)COCCCOCCCOc2ccc(N3C(=S)N(c4ccc(C#N)c(C(F)(F)F)c4)C(=O)C3(C)C)cc2)C(C)(C)C)cc1` [Compound 7], at AR, the “maximum AR degradation Dmax” value is recorded as 56% and the 50% degradation concentration (DC50) turned out to be 0.39 µM.
With `Cc1ncsc1-c1ccc(CNC(=O)[C@@H]2C[C@@H](O)CN2C(=O)[C@@H](NC(=O)CCOCCCOc2ccc(N3C(=S)N(c4ccc(C#N)c(C(F)(F)F)c4)C(=O)C3(C)C)cc2)C(C)(C)C)cc1` [Compound 4], on AR, the “maximum AR degradation Dmax” value turned out to be 18% and the 50% degradation concentration (DC50) is above 3 µM.
With `Cc1ncsc1-c1ccc(CNC(=O)[C@@H]2C[C@@H](O)CN2C(=O)[C@@H](NC(=O)COCCOc2ccc(N3C(=S)N(c4ccc(C#N)c(C(F)(F)F)c4)C(=O)C3(C)C)cc2)C(C)(C)C)cc1` [Compound 2], the IC50 on Androgen Receptor worked out at 2.14 µM. On AR, the “ratio α between AR-binding potency IC50 and degradation potency DC50” value is below 1; the “maximum AR degradation Dmax” value amounted to 51%; the DC50 was 1.7 µM.
